Laboratory results taken from patent publication US20250134855A1, “CO[…] AND METHODS OF USING SAME” (LYKOS THERAPEUTICS, INC., priority 2022, published 2025).

Experiments:
[1] = test system: participants with severe PTSD; test: MAPP1 Phase 3: Sheehan Disability Scale (SDS); format: in vivo, human
From the text: FIG. 36 and FIG. 37 show the time course of improvement in Clinician Administered PTSD Scale for DSM-5 (CAPS-5) total severity score versus placebo. Each show a treatment difference between MDMA and placebo after 3 medication sessions with psychological intervention. […] Between the second and third treatment sessions, the difference between the groups appeared to continue to increase in both studies. The primary efficacy measure was change from baseline in the CAPS-5 total severity score at 18 weeks, which was evaluated 2 months after the final dosing session. The CAPS-5 is a 30-item, clinician-rated scale used to assess severity of PTSD symptoms and diagnostic status according to DSM-5 criteria, as described herein. Scores on the CAPS 5 range from 0 to 80, with higher scores indicating more severe PTSD symptoms. In both studies, a secondary efficacy measure was change from baseline in Sheehan Disability Scale (SDS) mean item scores at 18 weeks. The modified SDS is a 3-item, clinician-rated scale measuring the degree of functional impairment in work, family, and social life. Scores on the SDS mean items range from 0 to 10, with higher scores indicating more functional impairment. In these studies, the efficacy assessments were administered by blinded independent raters 18 to 30 days after medication sessions 1 and 2.
(§1) MAPP1 was a Phase 3 randomized, placebo-controlled, 2-arm, double-blind, multi-site study conducted to investigate the efficacy and safety of MDMA-AT in participants with severe PTSD. This study is also discussed in Mitchell et. al., Nature Medicine 2021, 27, 1025-1033. This study included 3 experimental sessions of therapy combined with either MDMA·HCl or placebo. During Experimental Session 1, participants received a split dose of 120 mg (80 mg+40 mg).
Participants received an escalated split dose of 180 mg during Experimental Sessions 2 and 3 unless there were tolerability issues or the participant declined. The primary outcome measure, the CAPS-5, evaluated changes in PTSD symptom severity and the secondary outcome measure, the SDS, evaluated changes in functional impairment. Both measures were assessed by a blinded centralized language-specific IR pool.
The de jure estimand of treatment efficacy was used to determine the effect of MDMA-AT on SDS total score.

[2] = biological target: MATE1 (Homo sapiens, UniProt Q96FL8); test: Transporter inhibition, MATE1; settings: at supratherapeutic concentrations
[3] = test system: rats; test: 28-day repeat-dose toxicity, weekly oral, rats; settings: any dose
[4] = test system: participants with severe PTSD; test: MAPP1 Phase 3: safety, adverse events; format: in vivo, human
Procedure: as §1
There were 2 serious TEAEs in the placebo with therapy group (1 participant with 2 events of suicide attempt [1 moderate and 1 severe] and 1 participant with 1 event of suicidal ideation [severe], Listing 14.3.2.2.3). Adverse events of special interest included a subset of AEs involving cardiac function, suicidality, and MDMA abuse. There were 3 (6.5%) participants in the MDMA-AT group and 6 (13.6%) participants in the placebo with therapy group with a TEAE of special interest. The majority of AESIs were associated with suicidality (reported by […]) and 1 participant in the placebo group reported 2 AESIs that were associated with cardiac function (palpitations and irregular heart rate). […] A total of 4 participants discontinued study treatment due to a TEAE (MDMA: 1 participant [severe TEAE of depression]; placebo: 3 participants [1 participant with 2 serious adverse events (SAEs) of suicide attempt, 1 participant with a SAE of suicidal ideation, and 1 participant with 1 severe TEAE of insomnia]. The majority of participants in the MDMA-AT group (97.8%) and the placebo with therapy group (90.9%) had at least 1 temporally related TEAE (TEAEs that occurred during an experiment session or up to 2 days following); none of these events were SAEs. A listing of all TEAEs from MDMA-AT group with ≥5% incidence and twice prevalence of placebo group is provided below in Table 37. Table 37.

[5] = MAPP1, mITT, Baseline (Visit 3)
[6] = MAPP1, mITT, Baseline to Visit 19
[7] = MAPP1, mITT, Visit 19 (Primary Endpoint)
[8] = end of treatment, 42 patients (study not given)

Chain of MATE1 (Q96FL8 whole entry): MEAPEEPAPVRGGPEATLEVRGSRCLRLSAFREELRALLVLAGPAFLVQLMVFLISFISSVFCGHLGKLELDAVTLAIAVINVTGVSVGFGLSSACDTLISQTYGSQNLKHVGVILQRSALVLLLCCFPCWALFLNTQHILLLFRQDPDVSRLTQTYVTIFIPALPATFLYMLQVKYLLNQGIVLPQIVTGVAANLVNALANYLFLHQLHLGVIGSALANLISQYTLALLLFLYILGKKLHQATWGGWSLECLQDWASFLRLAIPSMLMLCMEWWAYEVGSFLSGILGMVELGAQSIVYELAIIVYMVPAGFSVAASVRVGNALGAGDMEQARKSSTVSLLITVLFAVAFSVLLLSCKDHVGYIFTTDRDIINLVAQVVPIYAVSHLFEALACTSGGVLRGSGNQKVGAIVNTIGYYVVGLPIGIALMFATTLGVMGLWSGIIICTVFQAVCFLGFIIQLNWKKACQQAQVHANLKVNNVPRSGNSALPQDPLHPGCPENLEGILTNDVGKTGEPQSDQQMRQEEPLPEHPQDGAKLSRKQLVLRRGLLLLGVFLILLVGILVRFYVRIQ

For `CNC(C)Cc1ccc2c(c1)OCO2` (stereo not shown) [MDMA, 3,4-methylenedioxymethamphetamine], the “SDS Total Score CFB, LSMean” value ([1]; MAPP1, mITT, MMRM, Visit 19) was −3.15, the “SDS Total Score CFB, LSMean for Treatment Difference” value ([1]; MAPP1, mITT, MMRM, vs placebo with therapy, Visit 19) was −1.36 and the “SDS Total Score, Mean” value [1, 5] was 6.8. For the same compound, the “SDS Total Score, Median” value [1, 5] was 6.8, the “SDS Total Score CFB, Mean” value [1, 6] was −3.1 and the “SDS Total Score CFB, Median” value [1, 6] was −2.5. For the same compound, the “SDS Total Score, Mean” value ([1]; MAPP1, mITT, Visit 8) was 5.0, the “SDS Total Score, Median” value ([1]; MAPP1, mITT, Visit 8) was 5.0 and the “SDS Total Score, Mean” value ([1]; MAPP1, mITT, Visit 13) was 4.1. The “SDS Total Score, Median” value ([1]; MAPP1, mITT, Visit 13) was 4.7, the “SDS Total Score, Mean” value [1, 7] was 3.8 and the “SDS Total Score, Median” value [1, 7] was 3.4. The “reduction in SDS total scores” value ([1]; MAPP1, MMRM, de jure estimand) was −3.15, the “SDS Remission (SDS mean item score < 3)” value [1, 8] was “(42.9) %” and the “SDS Remission (SDS mean item score < 3), n” value [1, 8] was 18. For the same compound, the “SDS Responder (4 point or greater reduction from baseline SDS mean item score)” value [1, 8] was “(38.1) %”, the “SDS Responder (4 point or greater reduction from baseline SDS mean item score), n” value [1, 8] was 16 and the “inhibition of MATE1” value [2] was “inhibits”. The “neurohistopathology of the brain” value [3] was “No morphologic changes”, the “AESIs of MDMA abuse” value ([4]; MAPP1) was “no AESIs of MDMA abuse” and the “TEAE Blood pressure increased, %” value ([4]; MAPP1) was “(10.9) %”. For the same compound, the “TEAE Bruxism, %” value ([4]; MAPP1) was “(13.0) %”, the “TEAE Chills, %” value ([4]; MAPP1) was “(6.5) %” and the “TEAE Decreased appetite, %” value ([4]; MAPP1) was “(52.2) %”. For the same compound, the “TEAE Dizziness postural, %” value ([4]; MAPP1) was “(13.0) %”, the “TEAE Dry mouth, %” value ([4]; MAPP1) was “(10.9) %” and the “TEAE Feeling cold, %” value ([4]; MAPP1) was “(19.6) %”. For the same compound, the “TEAE Feeling jittery, %” value ([4]; MAPP1) was “(10.9) %”, the “TEAE Hyperhidrosis, %” value ([4]; MAPP1) was “(21.7) %” and the “TEAE Intrusive thoughts, %” value ([4]; MAPP1) was “(8.7) %”. For the same compound, the “TEAE Micturition urgency, %” value ([4]; MAPP1) was “(6.5) %”, the “TEAE Muscle tightness, %” value ([4]; MAPP1) was “(60.9) %” and the “TEAE Muscle twitching, %” value ([4]; MAPP1) was “(6.5) %”. For the same compound, the “TEAE Musculoskeletal pain, %” value ([4]; MAPP1) was “(8.7) %”, the “TEAE Mydriasis, %” value ([4]; MAPP1) was “(15.2) %” and the “TEAE Nausea, %” value ([4]; MAPP1) was “(30.4) %”. For the same compound, the “TEAE Nervousness, %” value ([4]; MAPP1) was “(6.5) %”, the “TEAE Non-cardiac chest pain, %” value ([4]; MAPP1) was “(8.7) %” and the “TEAE Nystagmus, %” value ([4]; MAPP1) was “(13.0) %”. The “TEAE Pain, %” value ([4]; MAPP1) was “(8.7) %”, the “TEAE Pollakiuria, %” value ([4]; MAPP1) was “(8.7) %” and the “TEAE Pyrexia, %” value ([4]; MAPP1) was “(6.5) %”. For the same compound, the “TEAE Restlessness, %” value ([4]; MAPP1) was “(15.2) %”, the “TEAE Somnolence, %” value ([4]; MAPP1) was “(6.5) %” and the “TEAE Stress, %” value ([4]; MAPP1) was “(8.7) %”. The “TEAE Substance use, %” value ([4]; MAPP1) was “(6.5) %”, the “TEAE Vision blurred, %” value ([4]; MAPP1) was “(8.7) %” and the “TEAE Vomiting, %” value ([4]; MAPP1) was “(8.7) %”. The “participants with a TEAE of special interest” value ([4]; MAPP1) was 6.5%, the “At least one Serious TEAE Leading to Death, %” value ([4]; MAPP1, Safety Set) was “(0.0) %” and the “At least one Serious TEAE, %” value ([4]; MAPP1, Safety Set) was “(0.0) %”. For the same compound, the “At least one TEAE of Special Interest, %” value ([4]; MAPP1, Safety Set) was “(6.5) %”, the “Discontinued study treatment due to any TEAE(s), %” value ([4]; MAPP1, Safety Set) was “(2.2) %” and the “Participants with at least 1 TEAE during Experimental Sessions and 2 Days Following, %” value ([4]; MAPP1, Safety Set) was “(97.8) %”. The “Subjects with at least 1 Severe TEAE, %” value ([4]; MAPP1, Safety Set) was “(8.7) %”, the “Subjects with at least 1 TEAE, %” value ([4]; MAPP1, Safety Set) was “(100.0) %” and the “heart rate and blood pressure during experimental sessions” value ([4]; MAPP1, dose-dependent, no clinical intervention required) was “transient increases”. For the same compound, the “participants with at least 1 temporally related TEAE” value ([4]; MAPP1, during an experiment session or up to 2 days following) was 97.8%.
